{"source": "PubChem BioAssay (NCI)", "test_in_all_cases": "DTP human tumour cell line panel, 48 h", "key": {"SW-620 colon": {"system": "SW-620 colon"}, "U251 CNS": {"system": "U251 CNS"}, "MDA-MB-231 breast": {"system": "MDA-MB-231 breast"}, "RXF 393 renal": {"system": "RXF 393 renal"}, "KM12 colon": {"system": "KM12 colon"}, "MOLT-4 leukemia": {"system": "MOLT-4 leukemia"}, "SF-295 CNS": {"system": "SF-295 CNS"}, "OVCAR-5 ovarian": {"system": "OVCAR-5 ovarian"}, "HOP-62 NSCLC": {"system": "HOP-62 NSCLC"}, "LOX IMVI melanoma": {"system": "LOX IMVI melanoma"}, "OVCAR-3 ovarian": {"system": "OVCAR-3 ovarian"}, "NCI-H522 lung": {"system": "NCI-H522 lung"}, "NCI-H460 lung": {"system": "NCI-H460 lung"}, "BT-549 breast": {"system": "BT-549 breast"}, "786-0 renal": {"system": "786-0 renal"}, "A498 renal": {"system": "A498 renal"}, "UACC-62 melanoma": {"system": "UACC-62 melanoma"}, "SNB-75 CNS": {"system": "SNB-75 CNS"}, "HCT-116 colon": {"system": "HCT-116 colon"}, "TK-10 renal": {"system": "TK-10 renal"}, "RPMI-8226 leukemia": {"system": "RPMI-8226 leukemia"}, "CAKI-1 renal": {"system": "CAKI-1 renal"}, "K-562 leukemia": {"system": "K-562 leukemia"}, "UACC-257 melanoma": {"system": "UACC-257 melanoma"}, "OVCAR-8 ovarian": {"system": "OVCAR-8 ovarian"}, "MDA-MB-435": {"system": "MDA-MB-435"}, "HCC-2998 colon": {"system": "HCC-2998 colon"}, "SR leukemia": {"system": "SR leukemia"}, "NCI-H226 lung": {"system": "NCI-H226 lung"}}, "note": "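Method: 48-hour compound exposure of cells in 96-well plates, five concentrations, linear interpolation of endpoints. Here, GI50 denotes the concentration required for 50% inhibition of growth. The concentration for full growth arrest is given as TGI.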"}
{"molecule": "CN(CC(=O)N(Cc1ccc(C2CCCCC2)cc1)c1ccc(C(=O)O)cc1)S(=O)(=O)c1c(F)c(F)c(F)c(F)c1F", "values": [{"measurement": "GI50", "setting": "SW-620 colon", "result": 2.03, "unit": "µM"}, {"measurement": "TGI", "setting": "SW-620 colon", "result": 4.05, "unit": "µM"}, {"measurement": "GI50", "setting": "U251 CNS", "result": 1.86, "unit": "µM"}, {"measurement": "TGI", "setting": "U251 CNS", "result": 3.31, "unit": "µM"}, {"measurement": "GI50", "setting": "MDA-MB-231 breast", "result": 1.9, "unit": "µM"}, {"measurement": "TGI", "setting": "MDA-MB-231 breast", "result": 3.51, "unit": "µM"}, {"measurement": "GI50", "setting": "RXF 393 renal", "result": 1.93, "unit": "µM"}, {"measurement": "TGI", "setting": "RXF 393 renal", "result": 3.37, "unit": "µM"}, {"measurement": "GI50", "setting": "KM12 colon", "result": 2.94, "unit": "µM"}, {"measurement": "TGI", "setting": "KM12 colon", "result": 9.01, "unit": "µM"}, {"measurement": "GI50", "setting": "MOLT-4 leukemia", "result": 2.42, "unit": "µM"}, {"measurement": "TGI", "setting": "MOLT-4 leukemia", "result": 6.14, "unit": "µM"}, {"measurement": "GI50", "setting": "SF-295 CNS", "result": 15.2, "unit": "µM"}, {"measurement": "TGI", "setting": "SF-295 CNS", "result": 29.4, "unit": "µM"}, {"measurement": "GI50", "setting": "OVCAR-5 ovarian", "result": 10.8, "unit": "µM"}, {"measurement": "TGI", "setting": "OVCAR-5 ovarian", "result": 23.8, "unit": "µM"}, {"measurement": "GI50", "setting": "HOP-62 NSCLC", "result": 2.09, "unit": "µM"}, {"measurement": "TGI", "setting": "HOP-62 NSCLC", "result": 4.59, "unit": "µM"}, {"measurement": "GI50", "setting": "LOX IMVI melanoma", "result": 1.61, "unit": "µM"}, {"measurement": "TGI", "setting": "LOX IMVI melanoma", "result": 3.03, "unit": "µM"}, {"measurement": "GI50", "setting": "OVCAR-3 ovarian", "result": 1.79, "unit": "µM"}, {"measurement": "TGI", "setting": "OVCAR-3 ovarian", "result": 3.19, "unit": "µM"}, {"measurement": "GI50", "setting": "NCI-H522 lung", "result": 1.77, "unit": "µM"}, {"measurement": "TGI", "setting": "NCI-H522 lung", "result": 3.65, "unit": "µM"}, {"measurement": "GI50", "setting": "NCI-H460 lung", "result": 3.33, "unit": "µM"}, {"measurement": "TGI", "setting": "NCI-H460 lung", "result": 10.4, "unit": "µM"}, {"measurement": "GI50", "setting": "BT-549 breast", "result": 2.23, "unit": "µM"}, {"measurement": "TGI", "setting": "BT-549 breast", "result": 4.36, "unit": "µM"}, {"measurement": "GI50", "setting": "786-0 renal", "result": 2.28, "unit": "µM"}, {"measurement": "TGI", "setting": "786-0 renal", "result": 5.22, "unit": "µM"}, {"measurement": "GI50", "setting": "A498 renal", "result": 2.15, "unit": "µM"}, {"measurement": "TGI", "setting": "A498 renal", "result": 7.65, "unit": "µM"}, {"measurement": "GI50", "setting": "UACC-62 melanoma", "result": 1.92, "unit": "µM"}, {"measurement": "TGI", "setting": "UACC-62 melanoma", "result": 3.46, "unit": "µM"}, {"measurement": "GI50", "setting": "SNB-75 CNS", "result": 1.61, "unit": "µM"}, {"measurement": "TGI", "setting": "SNB-75 CNS", "result": 2.96, "unit": "µM"}, {"measurement": "GI50", "setting": "HCT-116 colon", "result": 1.93, "unit": "µM"}, {"measurement": "TGI", "setting": "HCT-116 colon", "result": 3.68, "unit": "µM"}, {"measurement": "GI50", "setting": "TK-10 renal", "result": 2.75, "unit": "µM"}, {"measurement": "TGI", "setting": "TK-10 renal", "result": 10.5, "unit": "µM"}, {"measurement": "GI50", "setting": "RPMI-8226 leukemia", "result": 2.85, "unit": "µM"}, {"measurement": "TGI", "setting": "RPMI-8226 leukemia", "result": 7.4, "unit": "µM"}, {"measurement": "GI50", "setting": "CAKI-1 renal", "result": 1.93, "unit": "µM"}, {"measurement": "TGI", "setting": "CAKI-1 renal", "result": 4.31, "unit": "µM"}, {"measurement": "GI50", "setting": "K-562 leukemia", "result": 1.93, "unit": "µM"}, {"measurement": "TGI", "setting": "K-562 leukemia", "result": 5.81, "unit": "µM"}, {"measurement": "GI50", "setting": "UACC-257 melanoma", "result": 2.01, "unit": "µM"}, {"measurement": "TGI", "setting": "UACC-257 melanoma", "result": 3.71, "unit": "µM"}, {"measurement": "GI50", "setting": "OVCAR-8 ovarian", "result": 2.5, "unit": "µM"}, {"measurement": "TGI", "setting": "OVCAR-8 ovarian", "result": 5.79, "unit": "µM"}, {"measurement": "GI50", "setting": "MDA-MB-435", "result": 1.75, "unit": "µM"}, {"measurement": "TGI", "setting": "MDA-MB-435", "result": 3.19, "unit": "µM"}, {"measurement": "GI50", "setting": "HCC-2998 colon", "result": 1.76, "unit": "µM"}, {"measurement": "TGI", "setting": "HCC-2998 colon", "result": 3.22, "unit": "µM"}, {"measurement": "GI50", "setting": "SR leukemia", "result": 2.64, "unit": "µM"}, {"measurement": "TGI", "setting": "SR leukemia", "result": 7.89, "unit": "µM"}, {"measurement": "GI50", "setting": "NCI-H226 lung", "result": 2.49, "unit": "µM"}]}
